“And” between values parts separate entries of the source, which are not always exact repeats. Identical values can stand only once. Inconclusive results and toxic doses are left out. Cut-off read from the data, not from the text of the source: active = T/C of 150% or more; inactive = T/C below 125%.
Test system: L1210 leukemia ip in BDF1 mice, survival T/C
Assay: NCI In Vivo Anticancer Drug Screen. Data for tumor model L1210 Leukemia (intraperitoneal) in B6D2F1 (BDF1) mice
Details: endpoint: mean survival time, higher = longer survival
How it was run: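 Transplanted-tumor mice were given test agent; controls received vehicle only. Survival readings from the two groups were divided (treated over control).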

[1] = dose: 100.0 mg/kg/injection, schedule: Q01DX001 (ip), vehicle: saline
[2] = dose: 200.0 mg/kg/injection, schedule: Q01DX001 (ip), vehicle: saline
[3] = dose: 400.0 mg/kg/injection, schedule: Q01DX001 (ip), vehicle: saline
[4] = dose: 100.0 mg/kg/injection, schedule: Q01DX009 (ip), vehicle: saline with Tween-80
[5] = dose: 100.0 mg/kg/injection, schedule: Q04DX003 (ip), vehicle: saline with Tween-80
[6] = dose: 200.0 mg/kg/injection, schedule: Q01DX009 (ip), vehicle: saline with Tween-80
[7] = dose: 200.0 mg/kg/injection, schedule: Q04DX003 (ip), vehicle: saline with Tween-80
[8] = dose: 400.0 mg/kg/injection, schedule: Q04DX003 (ip), vehicle: saline with Tween-80
[9] = dose: 25.0 mg/kg/injection, schedule: Q04DX003 (ip), vehicle: saline with Tween-80
[10] = dose: 75.0 mg/kg/injection, schedule: Q01DX001 (ip), vehicle: saline
[11] = dose: 150.0 mg/kg/injection, schedule: Q01DX001 (ip), vehicle: saline
[12] = dose: 300.0 mg/kg/injection, schedule: Q01DX001 (ip), vehicle: saline
[13] = dose: 100.0 mg/kg/injection, schedule: Q04DX003 (ip), vehicle: Klucel (hydroxypropylcellulose) (HPC)
[14] = dose: 200.0 mg/kg/injection, schedule: Q04DX003 (ip), vehicle: Klucel (hydroxypropylcellulose) (HPC)
[15] = dose: 400.0 mg/kg/injection, schedule: Q04DX003 (ip), vehicle: Klucel (hydroxypropylcellulose) (HPC)

Measured: T/C

O=C(CCCC(=O)N/N=C/c1ccc(C(=O)O)cc1)N/N=C\c1ccc(C(=O)O)cc1
inactive: dose: 50.0 mg/kg/injection, schedule: Q01DX001 (ip), vehicle: saline 104 % of control | [1] 102 % of control | [2] 98 % of control | [3] 98 % of control

O=C(OCC1OCOC(COC(=O)c2ccccc2)C(OC(=O)c2ccccc2)C1OC(=O)c1ccccc1)c1ccccc1 (configuration not stated)
inactive: dose: 50.0 mg/kg/injection, schedule: Q04DX002 (ip), vehicle: saline with Tween-80 88 % of control

NC(CC(=O)O)c1nn[nH]n1 (configuration not stated)
inactive: [4] 102 % of control | [5] 105 % of control | [6] 98 % of control | [7] 102 % of control | [8] 103 % of control

CCCOC(C[N+](=O)[O-])C(Cl)(Cl)Cl (configuration not stated)
inactive: dose: 6.25 mg/kg/injection, schedule: Q01DX009 (ip), vehicle: saline with Tween-80 91 % of control | dose: 12.5 mg/kg/injection, schedule: Q01DX009 (ip), vehicle: saline with Tween-80 96 % of control | dose: 25.0 mg/kg/injection, schedule: Q01DX009 (ip), vehicle: saline with Tween-80 101 % of control | [9] 104 % of control

COc1ccccc1NC(=O)C(N=Nc1ccc(S(=O)(=O)Nc2onc(C)c2C)cc1)C(C)=O (configuration not stated)
inactive: [10] 92 % of control | [11] 94 % of control | [12] 87 % of control

CC(C)C1C(=O)N2CCCC2C2(O)OC(C(=O)NCCc3c[nH]c4ccccc34)(C(C)C)C(=O)N12 (configuration not stated)
inactive: dose: 6.25 mg/kg/injection, schedule: Q04DX003 (ip), vehicle: saline with Tween-80 98 % of control | dose: 12.5 mg/kg/injection, schedule: Q04DX003 (ip), vehicle: saline with Tween-80 111 % of control | dose: 25.0 mg/kg/injection, schedule: Q04DX003 (ip), vehicle: alcohol 98 % of control | [9] 101 % of control | dose: 50.0 mg/kg/injection, schedule: Q04DX003 (ip), vehicle: alcohol 105 % of control | dose: 50.0 mg/kg/injection, schedule: Q04DX003 (ip), vehicle: saline with Tween-80 98 % of control | dose: 100.0 mg/kg/injection, schedule: Q04DX003 (ip), vehicle: alcohol 98 % of control | dose: 200.0 mg/kg/injection, schedule: Q04DX003 (ip), vehicle: alcohol 98 % of control

O=S(=O)(O)SCCCNCCCNCCCSS(=O)(=O)O
inactive: dose: 9.37 mg/kg/injection, schedule: Q01DX009 (ip), vehicle: saline 88 % of control | dose: 18.75 mg/kg/injection, schedule: Q01DX009 (ip), vehicle: saline 87 % of control | dose: 37.5 mg/kg/injection, schedule: Q01DX009 (ip), vehicle: saline 93 % of control | dose: 37.5 mg/kg/injection, schedule: Q04DX003 (ip), vehicle: saline 98 % of control | [10] 102 % of control | dose: 75.0 mg/kg/injection, schedule: Q04DX003 (ip), vehicle: saline 93 % of control | [11] 96 % of control

CCCc1cc(=O)[nH]c(=S)[nH]1
inactive: [13] 93 % of control | [14] 96 % of control | [15] 101 % of control

S=P(c1cccs1)(c1cccs1)c1cccs1
inactive: [5] 93 % of control | [7] 96 % of control | [8] 86 % of control

CC[N+](CC)(CC)CCCNC(=O)C12CC3CC(CC(C3)C1)C2
inactive: dose: 25.0 mg/kg/injection, schedule: Q04DX002 (ip), vehicle: saline 95 % of control | dose: 50.0 mg/kg/injection, schedule: Q04DX002 (ip), vehicle: saline 101 % of control

CC1(C#N)CC(C)(C)C(=O)N1 (configuration not stated)
inactive: [10] 102 % of control | [11] 102 % of control | [12] 108 % of control

CC(=O)Nc1cc(C(=O)Nc2ccc(C)cc2C)ccc1C
inactive: dose: 50.0 mg/kg/injection, schedule: Q04DX003 (ip), vehicle: Klucel (hydroxypropylcellulose) (HPC) 92 % of control | [13] 92 % of control | [14] 92 % of control

CCNCCCN
inactive: dose: 25.0 mg/kg/injection, schedule: Q01DX009 (ip), vehicle: saline 97 % of control | dose: 25.0 mg/kg/injection, schedule: Q04DX003 (ip), vehicle: saline 115 % of control | dose: 50.0 mg/kg/injection, schedule: Q01DX009 (ip), vehicle: saline 101 % of control | dose: 50.0 mg/kg/injection, schedule: Q04DX003 (ip), vehicle: saline 115 % of control | dose: 100.0 mg/kg/injection, schedule: Q01DX009 (ip), vehicle: saline 103 % of control | dose: 100.0 mg/kg/injection, schedule: Q04DX003 (ip), vehicle: saline 93 % of control and 103 % of control

[I][Ga]([I])[I]
inactive: [1] 101 % of control | [2] 108 % of control | [3] 111 % of control

CCOc1nc(=O)n(CC(=O)c2ccc(Cl)s2)cc1F
inactive: [4] 105 % of control | [5] 103 % of control | [6] 90 % of control | [7] 103 % of control | dose: 400.0 mg/kg/injection, schedule: Q01DX009 (ip), vehicle: saline with Tween-80 86 % of control | [8] 94 % of control

CC(C)(C)OC(=O)N1CCCC1C(=O)O (configuration not stated)
inactive: dose: 100.0 mg/kg/injection, schedule: Q01DX001 (ip), vehicle: carboxymethylcellulose (CMC) 109 % of control | dose: 200.0 mg/kg/injection, schedule: Q01DX001 (ip), vehicle: carboxymethylcellulose (CMC) 104 % of control | dose: 400.0 mg/kg/injection, schedule: Q01DX001 (ip), vehicle: carboxymethylcellulose (CMC) 95 % of control

O=C(O)/C=C\C(=O)NCC1CCC(CNC(=O)/C=C\C(=O)O)CC1 (configuration not stated)
inactive: [13] 98 % of control | [14] 100 % of control | [15] 102 % of control
